Measured values from patent US20230255975A1, “METHODS FOR TREATING CANCER WITH COMBINATION THERAPIES” (Celgene Corporation, priority 2020, published 2023).
Read-outs that look alike come from different tables or passages of the source.

Tests used:
K12PE-PR cell line = assay: Proliferation assay; assay type: cell-based; conditions: for IC50: K12PE-PR, isogenic sensitive/resistant comparison, read-out: IC50 concentration, proliferation
Description: (§1) Proliferation and viability assays: Cell growth curves were determined by monitoring the viability of cells with Trypan blue exclusion on a Vi-Cell-XR (Becton Dickinson, Franklin Lakes, N.J., USA). Proliferation assays were performed in triplicate at least three times (n=3) using (3H)-thymidine incorporation. All data were plotted and analyzed using GraphPad Prism 7 (GraphPad Software, La Jolla, Calif., USA) software, represented as the mean with an error determined as ±s.d.
as §1, with “assay.” for “assays:”, “Cell lines” for “Proliferation assays”, “plated” for “performed”, “in 96-well round-bottom plates with the indicated drug concentrations or knockdown cells. […]” for “at least three times (n=3) using (3H)-thymidine incorporation.”

[1] = tested on: AMO1-PR (pomalidomide resistant) cell line; assay: Proliferation assay; assay type: cell-based; conditions: for IC50: isogenic sensitive/resistant comparison, read-out: IC50 concentration, proliferation
Description: as §1
as §1, with “assay.” for “assays:”, “Cell lines” for “Proliferation assays”, “plated” for “performed”, “in 96-well round-bottom plates with the indicated drug concentrations or knockdown cells. […]” for “at least three times (n=3) using (3H)-thymidine incorporation.”

K12PE cell line = assay: Proliferation assay; assay type: cell-based; conditions: for IC50: K12PE, read-out: IC50 concentration, proliferation
Description: as §1
as §1, with “assay.” for “assays:”, “Cell lines” for “Proliferation assays”, “plated” for “performed”, “in 96-well round-bottom plates with the indicated drug concentrations or knockdown cells. […]” for “at least three times (n=3) using (3H)-thymidine incorporation.”

AMO1 cell line = assay: Proliferation assay; assay type: cell-based; conditions: AMO1; for IC50: Homo sapiens, read-out: IC50 concentration, proliferation
Description: as §1
as §1, with “assay.” for “assays:”, “Cell lines” for “Proliferation assays”, “plated” for “performed”, “in 96-well round-bottom plates with the indicated drug concentrations or knockdown cells. […]” for “at least three times (n=3) using (3H)-thymidine incorporation.”

H929-PR cell line = assay: Proliferation assay; assay type: cell-based; conditions: isogenic sensitive/resistant comparison, read-out: IC50 concentration, proliferation
Description: (§2) Proliferation and viability assay. Cell growth curves were determined by monitoring the viability of cells with Trypan blue exclusion on a Vi-Cell-XR (Becton Dickinson, Franklin Lakes, N.J., USA). Cell lines were plated in triplicate in 96-well round-bottom plates with the indicated drug concentrations or knockdown cells. Proliferation assays were performed in triplicate at least three times (n=3) using either the WST-1 tetrazolium salt (Roche Applied Science) reagent used according to the manufacturer's specifications or by (3H)-thymidine incorporation as previously described (Bjorklund et al., Blood Cancer Journal 5, e354, 2015). All data were plotted and analyzed using GraphPad Prism 7 (GraphPad Software, La Jolla, Calif., USA) software, represented as the mean with an error determined as ±s.d.

H929 cell line = assay: Proliferation assay; assay type: cell-based; conditions: Homo sapiens, read-out: IC50 concentration, proliferation
Description: as §1, §2

[2] = tested on: other kinases, including Cdk1 and Aurora B; conditions: selective inhibitors of NEK2; Henise 2011, Innocenti 2012; cited from earlier work
[3] = tested on: PLK1 signaling in MM1.S cells; assay: Immunoblot of PLK1 signaling; assay type: cell-based; conditions: MMS.1 cells, increasing concentrations; FIG. 2C
Description: (§3) Immunoblotting: Immunoblot analysis was performed using WES kits, (Protein Simple, San Jose, Calif., USA) at least two times each (n≥2), where the best representative is shown.
(§4) The effects of pomalidomide in isogenic sensitive (EJM) and resistant (EJM-PR) and MM1.S cell lines was analyzed. […] To determine the role of PLK1 in pomalidomide response, EJM and EJM-PR cell lines were treated with pomalidomide and analyzed changes in PLK1 levels and downstream signaling. […] The changes in PLK1 transcript levels were further examined in response to pomalidomide treatment in MM1. […] Confocal microscopy was performed to study changes in PLK1 and CDC25C staining in MM1.S cells and a decrease in PLK1 levels and simultaneous decrease in CDC25C staining in response to pomalidomide and Compound 5 treatments was observed. […] Further analysis of the ChIP-seq datasets of Aiolos confirmed binding of Aiolos on TSS of PLK1 with overlapping transcriptional activation H3K27Ac signature extrapolated from publicly available ChIP-seq datasets in GM12878 cell line (Encode project). Since changes in PLK1 levels are due to decrease in PLK1 transcription in response to antiproliferative compounds, the effects of Aiolos and Ikaros knockdowns on PLK1 levels using MM1.S cells with inducible expression of Aiolos and Ikaros shRNAs were analyzed. Both Aiolos and Ikaros knock down lead to a decrease in PLK1 levels (FIG. 2F), indicating transcriptional regulation of PLK1 by substrates of Cereblon.

[4] = tested on: PLK1, pCDC25C and CDC25C in EJM cells; assay: Immunoblot of PLK1 signaling; assay type: cell-based; conditions: EJM (sensitive) cells only, not EJM-PR
Description: as §3, §4

[5] = tested on: PLK1 transcript in MM1.S cells; assay: PLK1 transcript levels (qPCR); assay type: cell-based; conditions: FIG. 2D
Description: RNA Extraction, Reverse Transcription, and Real-Time PCR Analysis: Total RNA was extracted using a RNeasy plus kit (Qiagen, Germantown, Md., USA) and reverse-transcribed using an iScrip reverse transcription kit (Bio-Rad, Philadelphia, Pa., USA). Quantitative real-time PCR (qPCR) analyses were performed using Taqman PCR Master Mix and the ViiA 7 Real-Time PCR System (Applied Biosystems, Foster City, Calif., USA). Gene expressions were calculated following normalization to GAPDH levels using the comparative CT method (ΔΔCT method). The primer sequences for qPCR are following:
The effects of pomalidomide in isogenic sensitive (EJM) and resistant (EJM-PR) and MM1.S cell lines was analyzed. […] To determine the role of PLK1 in pomalidomide response, EJM and EJM-PR cell lines were treated with pomalidomide and analyzed changes in PLK1 levels and downstream signaling. […] The changes in PLK1 transcript levels were further examined in response to pomalidomide treatment in MM1. […] Since changes in PLK1 levels are due to decrease in PLK1 transcription in response to antiproliferative compounds, the effects of Aiolos and Ikaros knockdowns on PLK1 levels using MM1.S cells with inducible expression of Aiolos and Ikaros shRNAs were analyzed. […]

Control shRNA cell lines = assay: Biparametric Annexin V and Propidium Iodide assay; assay type: cell-based
Description: (§5) Biparametric assay for detection of cell cycle and apoptosis. Cell viability assay with Annexin V-FITC and propidium iodide was performed according to the published protocol cycle (Rieger et al., J Vis Exp. 2011, (50):2597; Léonce et al., Mol Pharmacol. 2001, 60(6):1383-1391).
(§6) Pomalidomide treatment combined with NEK2 inhibition increases apoptosis. Biparametric Annexin V and Propidium Iodide (PI) assay was performed to analyze cell cycle and apoptosis in the same sample and to quantify the proportion of cells undergoing apoptosis at each phase of cell cycle (Rieger et al., J Vis Exp. 2011, (50):2597; Léonce et al., Mol Pharmacol. 2001, 60(6):1383-1391). Control shRNA and NEK2 shRNA cell lines were treated with pomalidomide and followed cell cycle and apoptosis for the duration of two cell cycles. At 72 hours about 5.04% cells in the control shRNA lines were apoptotic compared to 21.1% apoptotic cells in NEK2 shRNA cell lines. […] At 96 hours about 9.5% of the cells in control shRNA lines and 24.7% of the NEK2 shRNA cell lines were apoptotic, and a majority of apoptotic cells were again contributed from G1-S phase of cell cycle. […] Combination of these two agents results in apoptosis of 20-25% cells in each cycle, with majority of apoptotic cells contributed from G1/S phase of cell cycle.

NEK2 shRNA cell lines = assay: Biparametric Annexin V and Propidium Iodide assay; assay type: cell-based
Description: as §5, §6

[6] = tested on: CKS1B and E2F2 in EJM and EJM-PR cell lines; assay: CKS1B and E2F2 in response to Pom; assay type: cell-based; conditions: isogenic EJM and EJM-PR; FIG. 12
Description: Effects of Pomalidomide (Pom) on CKS1B and E2F2 in Pom sensitive and resistant cell lines. […] Since Aiolos was not degraded in the EJM-PR cell line consistent with the absence of CKS1B and E2F2 downregulation, the binding of Aiolos on the transcriptional start sites (TSS) of CKS1B and E2F2 was analyzed.

Mc-CAR cell line = assay: Proliferation assay; assay type: cell-based; conditions: 72 h; MC-CAR; Day 3 post treatment; NEK2 inhibitor; read-out: IC50 concentration, proliferation
Description: as §1, §2

[7] = tested on: Ikaros (IKZF1), Aiolos (IKZF3) and ZFP91; assay: Substrate degradation by immunoblotting; assay type: cell-based; conditions: single agent
Description: Effect of NEK2 downregulation on Compound 5 and Compound 6-induced substrate degradation. […] The effect of NEK2 knockdown on pomalidomide mediated substrate degradation was also studied. Control and NEK2 shRNA cells were incubated to varying concentrations of pomalidomide. Pomalidomide treatment degraded Ikaros (IKZF1), Aiolos (IKZF3) and ZFP91 in a concentration dependent manner in control shRNA lines. A similar pattern of substrate degradation was maintained in NEK2 knockdown cell lines.

[8] = 72 h, Day 3 post treatment, NEK2 inhibitor
[9] = isogenic sensitive/resistant comparison
[10] = NCI-H929, 72 h, Day 3 post treatment, NEK2 inhibitor
[11] = NCI-H929, isogenic sensitive/resistant comparison

| IC50 (H929-PR cell line) [µM] | IC50 (H929 cell line; [10]) [µM] | IC50 (H929 cell line; [11]) [µM] | Structure (SMILES) | IC50 (K12PE-PR cell line) [µM] | IC50 [1] [µM] | IC50 (K12PE cell line; [8]) [µM] | IC50 (K12PE cell line; [9]) [µM] | IC50 (AMO1 cell line; [8]) [µM] | IC50 (AMO1 cell line; [9]) [µM] | also measured |
| --- | --- | --- | --- | --- | --- | --- | --- | --- | --- | --- |
| 5.2 | 8 | 7.9 | CC(/C=C\C(F)(F)F)Oc1cc(-c2cc(-c3cc(CN(C)C)cs3)cnc2N)ccc1C(N)=O (racemic) [Rac-CCT 250863, 4-[2-amino-5-[4-[(dimethylamino)methyl]-2-thienyl]-3-pyridinyl]-2-[[(2Z)-4,4,4-trifluoro-1-methyl-2-buten-1-yl]oxy]benzamide] | 5.17 | 3.6 | 8.7 | 8.5 | 7.1 | 7 | Selectivity: effect on other kinases, including Cdk1 and Aurora B [2]: low effect on other kinases |
|  |  |  | Nc1cccc2c1C(=O)N(C1CCC(=O)NC1=O)C2=O (stereo not drawn) [Compound 1, 4-amino-2-(2,6-dioxopiperidine-3-yl)isoindoline-1,3-dione] |  |  |  |  |  |  | PLK1 signaling [3]: dose dependent decrease; PLK1 levels and downstream effector pCDC25C and CDC25C [4]: dose dependent decrease; Synergy of combination with JQ1 on proliferation (K12PE-PR cell line; Pom resistant K12PE-PR, in combination with JQ1): synergistically decreased proliferation; Synergy with trametinib on proliferation ([1]; in combination with trametinib): strong synergy; Synergy analysis (Calcusyn) of combination with JQ1 on proliferation (K12PE cell line; K12PE cells, in combination with JQ1): synergistic; Synergy with trametinib on proliferation (AMO1 cell line; in combination with trametinib): strong synergy; PLK1 transcript levels [5]: decreased PLK1 transcript levels in a dose dependent manner; apoptotic cells (Control shRNA cell lines; 72 hours): about 5.04%; apoptotic cells (Control shRNA cell lines; 96 hours): about 9.5%; apoptotic cells (NEK2 shRNA cell lines; 72 hours): 21.1%; apoptotic cells (NEK2 shRNA cell lines; 96 hours): 24.7%; CKS1B and E2F2 expression [6]: downregulated at the transcriptional level only in Pom sensitive cells |
| 0.27 | 0.37 | 0.37 | C#CC(=O)Nc1ccc2c(c1)/C(=C/c1[nH]c(CC)nc1C)C(=O)N2 [JH295, (Z)—N-(3-((2-ethyl-4-methyl-1H-imidazol-5-yl)methylene)-2-oxoindolin-5-yl)propiolamide] | 10.8 | 0.31 | 4 | 4 | 0.48 | 0.48 | IC50 (Mc-CAR cell line): 0.56 µM; substrate degradation (Ikaros, Aiolos, ZFP91) in comparison to DMSO control [7]: No effect |
